According to patent US9388142B2, “Quinazolinone derivatives as PARP inhibitors” (MERCK PATENT GMBH, priority 2012, dated 2016):
Structures can show the parent of a compound that is named as a salt. Where two headings read alike, the source gives them in different places.

Legend:
[1] = target: T1, GST-tagged Tankyrase-1 (1023-1327 aa) (Homo sapiens, UniProt O95271); assay: biochemical
T1 construct: GST-tagged Tankyrase-1 (1023-1327 aa)
Description: aq (aqueous), h (hour), g (gram), L (liter), mg (milligram), MHz (Megahertz), min. (minute), mm (millimeter), mmol (millimole), mM (millimolar), m.p. (melting point), eq (equivalent), mL (milliliter), L (microliter), ACN (acetonitrile), AcOH (acetic acid), CDCl3 (deuterated chloroform), CD3OD (deuterated methanol), CH3CN (acetonitrile), c-hex (cyclohexane), DCC (dicyclohexyl carbodiimide), DCM (dichloromethane), DIC (diisopropyl carbodiimide), DIEA (diisopropylethyl-amine), DMF (dimethylformamide), DMSO (dimethylsulfoxide), DMSO-d6 (deuterated dimethylsulfoxide), EDC (1-(3-dimethyl-amino-propyl)-3-ethylcarbodiimide), ESI (Electro-spray ionization), EtOAc (ethyl acetate), Et2O (diethyl ether), EtOH (ethanol), HATU (dimethylamino-([1,2,3]triazolo[4,5-b]pyridin-3-yloxy)-methylene]-dimethylammonium hexafluorophosphate), HPLC (High Performance Liquid Chromatography), i-PrOH (2-propanol), K2CO3 (potassium carbonate), LC (Liquid Chromatography), MeOH (methanol), MgSO4 (magnesium sulfate), MS (mass spectrometry), MTBE (Methyl tert-butyl ether), NaHCO3 (sodium bicarbonate), NaBH4 (sodium borohydride), NMM (N-methyl morpholine), NMR (Nuclear Magnetic Resonance), PyBOP (benzotriazole-1-yl-oxy-trispyrrolidino-phosphonium hexafluorophosphate), RT (room temperature), Rt (retention time), SPE (solid phase extraction), TBTU (2-(1-H-benzotriazole-1-yl)-1,1,3,3-tetramethyluromium tetrafluoro borate), TEA (triethylamine), TFA (trifluoroacetic acid), THF (tetrahydrofuran), TLC (Thin Layer Chromatography), UV (Ultraviolet). Description of the In Vitro Assays Abbreviations: GST=Glutathione-S-transferase FRET=Fluorescence resonance energy transfer HTRF®=(homogenous time resolved fluorescence) HEPES=4-(2-hydroxyethyl)-1-piperazine ethanesulfonic acid buffer DTT=Dithiothreitol BSA=bovine serum albumin CHAPS=detergent; CHAPS=3[(3-cholamidopropyl)dimethylammonio]-1-propanesulfonate Streptavidin-XLent® is a high grade streptavidin-XL665 conjugate for which the coupling conditions have been optimized to yield a conjugate with enhanced performances for some assays, particularly those requiring high sensitivity.
(§1) The autoparsylation assay is run in two steps: the enzymatic reaction in which GST-tagged Tankyrase-1, resp Tankyrase-2 transferred biotinylated ADP-ribose to itself from biotinylated NAD as co-substrate and the detection reaction where a time resolved FRET between cryptate labelled anti-GST bound to the GST tag of the enzyme and Xlent® labelled-streptavidin bound the biotin-parsylation residue is analysed. The autoparsylation activity was detectable directly via the increase in HTRF signal.
The autoparsylation assay is performed as 384-well HTRF® (Cisbio, Codolet, France) assay format in Greiner low volume nb 384-well microtiter plates and is used for high throughput screen. […] The reaction is stopped by the addition of 1 μl 50 mM EDTA solution. […] The ratio of the emission signals is determined. The full value used is the inhibitor-free reaction. […] The inhibitory values (IC50) are determined using either the program Symyx Assay Explorer® or Condosseo® from GeneData.

[2] = target: T2, His-tagged Parp-1 (Homo sapiens, UniProt P09874); assay: PARP-1 autoparsylation assay (HTRF); format: biochemical
T2 construct: purchased Enzo Life Sciences GmbH, Lörrach, Germany
T2 sequence (P09874 whole entry): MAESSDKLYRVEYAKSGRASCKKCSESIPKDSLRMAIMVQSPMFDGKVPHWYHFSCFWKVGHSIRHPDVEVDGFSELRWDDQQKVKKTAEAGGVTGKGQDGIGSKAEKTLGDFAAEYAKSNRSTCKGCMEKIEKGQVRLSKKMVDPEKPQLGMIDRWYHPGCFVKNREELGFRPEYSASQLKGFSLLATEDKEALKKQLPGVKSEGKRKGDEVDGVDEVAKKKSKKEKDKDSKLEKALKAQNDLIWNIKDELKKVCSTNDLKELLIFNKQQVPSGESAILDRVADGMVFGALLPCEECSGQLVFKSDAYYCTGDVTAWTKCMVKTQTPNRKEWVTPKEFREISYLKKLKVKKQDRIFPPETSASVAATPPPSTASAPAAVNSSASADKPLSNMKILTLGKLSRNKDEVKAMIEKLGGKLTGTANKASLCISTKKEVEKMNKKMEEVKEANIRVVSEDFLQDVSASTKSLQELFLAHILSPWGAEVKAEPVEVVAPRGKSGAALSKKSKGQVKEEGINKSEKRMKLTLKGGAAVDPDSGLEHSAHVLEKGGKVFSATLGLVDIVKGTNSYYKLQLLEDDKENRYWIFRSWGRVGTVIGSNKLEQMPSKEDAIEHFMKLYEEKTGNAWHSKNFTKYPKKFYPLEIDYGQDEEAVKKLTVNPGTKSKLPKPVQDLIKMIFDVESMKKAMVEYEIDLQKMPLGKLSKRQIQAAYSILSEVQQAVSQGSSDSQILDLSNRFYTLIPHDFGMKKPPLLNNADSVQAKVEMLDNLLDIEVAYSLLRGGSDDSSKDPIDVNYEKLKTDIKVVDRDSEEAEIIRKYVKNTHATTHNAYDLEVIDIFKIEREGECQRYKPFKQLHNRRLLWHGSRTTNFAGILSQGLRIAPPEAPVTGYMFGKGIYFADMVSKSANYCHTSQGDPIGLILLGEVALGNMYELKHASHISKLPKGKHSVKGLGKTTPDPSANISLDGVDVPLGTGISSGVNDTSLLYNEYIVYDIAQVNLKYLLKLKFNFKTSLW
Description: Description of the PARP1 Assay
Biochemical Activity Testing of PARP-1: Autoparsylation Assay
as §1, with “His-tagged Parp-1 transfers” for “GST-tagged Tankyrase-1, resp Tankyrase-2 transferred”, “ADP-ribose/ADP-ribose” for “ADP-ribose”, “NAD/NAD” for “NAD”, “anti-His antibody” for “anti-GST”, “His” for “GST”, “is” for “was”
The autoparsylation assay is performed as 384-well HTRF® (Cisbio, Codolet, France) assay format in Greiner low volume nb 384-well microtiter plates. 35 nM His-tagged Parp-1 (human, recombinant, Enzo Life Sciences GmbH, Lörrach, Germany) and a mixture of 125 nM bio-NAD (Biolog, Life science Inst., Bremen, Germany) and 800 nM NAD as co-substrate are incubated in a total volume of 6 μl (100 mM Tris/HCl, 4 mM Mg-chloride, 0.01% IGEPAL® CA630, 1 mM DTT, 0.5% DMSO, pH 8, 13 ng/μl activated DNA (BPS Bioscience, San Diego, US)) in the absence or presence of the test compound (10 dilution concentrations) for 150 min at 23° C. The reaction is stopped by the addition of 4 μl of the Stop/detection solution (70 nM SA-Xlent® (Cisbio, Codolet, France), 2.5 nM Anti-His-K® (Eu-labelled anti-His, Cisbio, Codolet, France) in 50 mM HEPES, 400 mM KF, 0.1% BSA, 20 mM EDTA, pH 7.0). After 1 h incubation at room temperature the HTRF iss measured with an Envision multimode reader (Perkin Elmer LAS Germany GmbH) at excitation wavelength 340 nm (laser mode) and emission wavelengths 615 nm and 665 nm. The ratio of the emission signals is determined. The full value used is the inhibitor-free reaction. The pharmacological zero value used is Olaparib (LClabs, Woburn, US) in a final concentration of 1 The inhibitory values (IC50) are determined using either the program Symyx Assay Explorer® or Condosseo® from GeneData.

[3] = target: T3, GST-tagged Tnks-1 (1023-1327 aa) (Homo sapiens, UniProt O95271); assay: TNKS1 activity ELISA (autoparsylation assay); format: biochemical
T3 construct: GST-tagged Tnks-1 (1023-1327 aa, prepared in-house); made in house
T3 sequence (O95271 1023-1327): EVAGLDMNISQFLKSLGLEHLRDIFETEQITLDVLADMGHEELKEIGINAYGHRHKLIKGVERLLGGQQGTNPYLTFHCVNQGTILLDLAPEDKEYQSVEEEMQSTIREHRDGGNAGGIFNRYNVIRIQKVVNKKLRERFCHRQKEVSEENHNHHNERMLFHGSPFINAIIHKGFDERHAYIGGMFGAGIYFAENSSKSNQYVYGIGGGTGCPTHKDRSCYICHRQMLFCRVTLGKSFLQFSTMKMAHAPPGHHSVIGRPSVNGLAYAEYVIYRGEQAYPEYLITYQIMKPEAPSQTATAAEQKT
Protocol: Description of the TNKS1 and TNKS2 ELISA Assay
Then the activity assay with biotinylated NAD is performed in the absence/presence of the compounds. During the enzymatic reaction GST tagged TNKS transfers biotinylated ADP-ribose to itself from biotinylated NAD as co-substrate. For the detection streptavidin-HRP conjugate is added that binds to the biotinylated TNKS and is thereby captured to the plates. The amount of biotinylated resp. autoparsylated TNKS is detected with a luminescence substrate for HRP. The level of the luminescence signal correlates directly with the amount of autoparsylated TNKS and therefore with activity of TNKS.
The activity ELISA is performed in 384 well Glutathione coated microtiter plates (Express capture Glutathione coated plate, Biocat, Heidelberg, Germany). The plates are pre-equilibrated with PBS. […] The plates are washed 3 times with PBS-Tween-20. The wells are blocked by incubation at room temperature for 20 minutes with 50 μl blocking buffer (PBS, 0.05% Tween-20, 0.5% BSA). Afterwards the plates are washed 3 times with PBS-Tween-20. […] The reaction is stopped by 3 times washing with PBS-Tween-20. For the detection 50 μl of 20 ng/μl Streptavidin, HRP conjugate (MoBiTec, Gottingen, Germany) in PBS/0.05% Tween-20/0.01% BSA are added and the plates are incubated for 30 minutes at room temperature. After three times washing with PBS-Tween-20 50 μl of SuperSignal ELISA Femto Maximum sensitivity substrate solution (ThermoFisherScientific (Pierce), Bonn, Germany) are added. Following a 1 minute incubation at room temperature luminescence signals are measured with an Envision multimode reader (Perkin Elmer LAS Germany GmbH) at 700 nm. The full value used is the inhibitor-free reaction. […] The inhibitory values (IC50) are determined using either the program Symyx Assay Explorer® or Condosseo® from GeneData.

[4] = read-out: IC50 tankyrase 1 (enzyme assay)

T1 sequence (O95271 1023-1327): as above

| SMILES | IC50 [1, 4] [nM] | IC50 [2] [nM] | IC50 ([3]; read-out: IC50 TNKS1 ELISA) [nM] | IC50 [3] [nM] | IC50 [1] [nM] |
| --- | --- | --- | --- | --- | --- |
| CC(C)(O)c1ccc(-c2nc3c(Cl)cccc3c(=O)[nH]2)cc1 [Compound A6, 8-chloro-2-[4-(1-hydroxy-1-methyl-ethyl)-phenyl]-3H-quinazolin-4-one] | < 300 | 300 to 3000 | < 300 | – | – |
| CC(C)(O)c1ccc(-c2nc3c(F)cc(F)cc3c(=O)[nH]2)cc1 [Compound A11, 6,8-difluoro-2-[4-(1-hydroxy-1-methyl-ethyl)phenyl]-3H-quinazolin-4-one] | – | 300 to 3000 | – | – | – |
| CN1CCN(c2ccc(-c3nc4ccc(F)cc4c(=O)[nH]3)cc2)CC1 [Compound A10, 6-fluoro-2-[4-(4-methyl-piperazin-1-yl)-phenyl]-3H-quinazolin-4-one] | < 300 | 300 to 3000 | < 300 | – | – |
| Cc1cc(F)cc2c(=O)[nH]c(-c3ccc(C(C)(C)OCCO)cc3)nc12 [Compound A21, 6-fluoro-2-{4-[1-(2-hydroxy-ethoxy)-1-methyl-ethyl]-phenyl}-8-methyl-3H-quinazolin-4-one] | 300 to 3000 | 300 to 3000 | < 300 | – | – |
| CC(C)(O)c1ccc(-c2nc3ccc(F)c(F)c3c(=O)[nH]2)cc1 [Compound A12, 5,6-difluoro-2-[4-(1-hydroxy-1-methyl-ethyl)phenyl]-3H-quinazolin-4-one] | < 300 | 300 to 3000 | < 300 | – | – |
| COc1cccc2c(=O)[nH]c(-c3ccc(C(C)(C)O)cc3)nc12 [Compound A2, 2-[4-(1-hydroxy-1-methyl-ethyl)-phenyl]-8-methoxy-3H-quinazolin-4-one] | < 300 | 300 to 3000 | < 300 | – | – |
| Cc1cc(F)cc2c(=O)[nH]c(-c3ccc(C4CCNCC4)cc3)nc12 [Compound A33, 6-fluoro-8-methyl-2-(4-piperidin-4-yl-phenyl)-3H-quinazolin-4-one hydrochloride] | < 300 | 300 to 3000 | – | < 300 | – |
| Cc1cc(F)cc2c(=O)[nH]c(-c3ccc(N4CCN(C)CC4)cc3)nc12 [Compound A28, 6-fluoro-8-methyl-2-[4-(4-methyl-piperazin-1-yl)-phenyl]-3H-quinazolin-4-one] | 300 to 3000 | < 300 | < 300 | – | – |
| COCCOC(C)(C)c1ccc(-c2nc3ccc(F)cc3c(=O)[nH]2)cc1 [Compound A8, 6-fluoro-2-{4-[1-(2-methoxy-ethoxy)-1-methyl-ethyl]-phenyl}-3H-quinazolin-4-one] | 300 to 3000 | 3000 to 50000 | < 300 | – | – |
| CC(C)(O)c1ccc(-c2nc3c(F)ccc(F)c3c(=O)[nH]2)cc1 [Compound A27, 5,8-difluoro-2-[4-(1-hydroxy-1-methyl-ethyl)-phenyl]-3H-quinazolin-4-one] | < 300 | – | – | – | – |
| CC(C)(OCCO)c1ccc(-c2nc3ccc(F)cc3c(=O)[nH]2)cc1 [Compound A7, 6-fluoro-2-{4-[1-(2-hydroxy-ethoxy)-1-methyl-ethyl]-phenyl}-3H-quinazolin-4-one] | < 300 | 300 to 3000 | < 300 | – | – |
| CC(C)(O)c1ccc(-c2nc3ccc(Cl)cc3c(=O)[nH]2)cc1 [Compound A5, 6-chloro-2-[4-(1-hydroxy-1-methyl-ethyl)-phenyl]-3H-quinazolin-4-one] | < 300 | – | < 300 | – | – |
| CC(C)(O)c1ccc(-c2nc3c(F)cccc3c(=O)[nH]2)cc1 [Compound A3, 8-fluoro-2-[4-(1-hydroxy-1-methyl-ethyl)-phenyl]-3H-quinazolin-4-one] | < 300 | 300 to 3000 | < 300 | – | – |
| CC(C)(C)c1ccc(-c2nc3ccc(F)cc3c(=O)[nH]2)cc1 [Compound A9, 2-(4-tert-butyl-phenyl)-6-fluoro-3H-quinazolin-4-one] | < 300 | 3000 to 50000 | < 300 | – | – |
| CC(C)(O)c1ccc(-c2nc3cccc(F)c3c(=O)[nH]2)cc1 [Compound A4, 5-fluoro-2-[4-(1-hydroxy-1-methyl-ethyl)-phenyl]-3H-quinazolin-4-one] | < 300 | 300 to 3000 | < 300 | – | – |
| Cc1cccc2c(=O)[nH]c(-c3ccc(C(C)(C)O)cc3)nc12 [Compound A24, 2-[4-(1-hydroxy-1-methyl-ethyl)-phenyl]-8-methyl-3H-quinazolin-4-one] | < 300 | < 300 | < 300 | – | – |
| O=c1[nH]c(-c2ccc(C3CCNCC3)cc2)nc2c(F)cc(F)cc12 [Compound A34, 6,8-difluoro-2-(4-piperidin-4-yl-phenyl)-3H-quinazolin-4-one hydrochloride] | – | – | – | – | < 300 |
| CC(C)(O)c1ccc(-c2nc3cccc(Cl)c3c(=O)[nH]2)cc1 [Compound A23, 5-chloro-2-[4-(1-hydroxy-1-methyl-ethyl)-phenyl]-3H-quinazolin-4-one] | 300 to 3000 | – | < 300 | – | – |
| CC(C)(O)c1ccc(-c2nc3ccc(F)cc3c(=O)[nH]2)nc1 [Compound A13, 6-fluoro-2-[5-(1-hydroxy-1-methyl-ethyl)-2-pyridyl]-3H-quinazolin-4-one] | 300 to 3000 | – | – | – | – |
